Reference: patent publication US8431593B2, “Heteroaryl amide derivatives” (H. Lundbeck A/S, priority 2006, dated 2013)

Molecular target: T1, P2X7 receptor (Homo sapiens, UniProt Q99572)
T1 construct: host or cells: SH-SY5Y
T1 sequence (Q99572 1-595): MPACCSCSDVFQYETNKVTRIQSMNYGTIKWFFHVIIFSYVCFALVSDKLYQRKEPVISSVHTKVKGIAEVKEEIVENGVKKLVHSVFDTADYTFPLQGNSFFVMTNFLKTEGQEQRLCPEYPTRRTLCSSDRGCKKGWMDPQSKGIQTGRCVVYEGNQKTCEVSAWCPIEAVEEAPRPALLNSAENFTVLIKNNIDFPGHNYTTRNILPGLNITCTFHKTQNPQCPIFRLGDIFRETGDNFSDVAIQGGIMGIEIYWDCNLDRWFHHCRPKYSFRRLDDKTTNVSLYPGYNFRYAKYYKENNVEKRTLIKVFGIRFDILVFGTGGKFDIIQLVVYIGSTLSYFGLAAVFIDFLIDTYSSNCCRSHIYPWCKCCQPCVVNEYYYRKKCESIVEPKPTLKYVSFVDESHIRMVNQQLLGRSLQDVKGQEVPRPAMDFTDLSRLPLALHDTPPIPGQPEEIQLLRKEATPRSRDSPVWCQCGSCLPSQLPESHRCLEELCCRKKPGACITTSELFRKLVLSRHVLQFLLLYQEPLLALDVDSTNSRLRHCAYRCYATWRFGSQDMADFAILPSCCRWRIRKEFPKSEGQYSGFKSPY
Assay: P2X7 calcium mobilization assay, high throughput, antagonist activity (Example 4A)
Format: cell-based
Details: 50% decrease in the fluorescence response of cells exposed to 80 μM of 2′(3′)-O-(4-benzoyl-benzoyl)adenosine 5′-triphosphate; Example 4A; read-out: IC50
In short: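 Antagonism was measured as calcium mobilization on FLIPR^TETRA after a 1 h room-temperature compound preincubation of dye-loaded cells. Baseline from no-agonist wells was subtracted from each well's maximum RFU.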

IC50, < 2000 nM:
NCC1CCCN1C(=O)c1cn2c(C(=O)NCC34CC5CC(CC(C5)C3)C4)cccc2n1 (stereo not drawn) [Compound 622, N-(adamantan-1-ylmethyl)-2-{[2-(aminomethyl)pyrrolidin-1-yl]carbonyl} imidazo[1,2-a]pyridine-5-carboxamide]
COCCN(C(=O)c1cn2c(C(=O)NCC34CC5CC(CC(C5)C3)C4)cccc2n1)C1CCNCC1(C)C (stereo not drawn) [Compound 623, 5-N-(adamantan-1-ylmethyl)-2-N-(3,3-dimethylpiperidin-4-yl)-2-N-(2-methoxyethyl)imidazo [1,2-a]pyridine-2,5-dicarboxamide]
NC1CCN(C(=O)c2cn3c(C(=O)NCC45CC6CC(CC(C6)C4)C5)cccc3n2)C1 (stereo not drawn) [Compound 625, N-(adamantan-1-ylmethyl)-2-[(3-aminopyrrolidin-1-yl)carbonyl] imidazo[1,2-a]pyridine-5-carboxamide]
NC1CCN(C(=O)c2cn3c(C(=O)NCC45CC6CC(CC(C6)C4)C5)cccc3n2)CC1 [Compound 626, N-(adamantan-1-ylmethyl)-2-[(4-aminopiperidin-1-yl)carbonyl]imidazo[1,2-a]pyridine-5-carboxamide]
NC1CCCN(C(=O)c2cn3c(C(=O)NCC45CC6CC(CC(C6)C4)C5)cccc3n2)C1 (stereo not drawn) [Compound 627, N-(adamantan-1-ylmethyl)-2-[(3-aminopiperidin-1-yl)carbonyl]imidazo[1,2-a]pyridine-5-carboxamide]
NC[C@@H]1CCCN1C(=O)c1cn2c(C(=O)NCC34CC5CC(CC(C5)C3)C4)cccc2n1 [Compound 628, N-(adamantan-1-ylmethyl)-2-{[(2S)-2-(aminomethyl)pyrrolidin-1-yl]carbonyl}imidazo[1,2-a]pyridine-5-carboxamide]
N[C@H]1CCN(C(=O)c2cn3c(C(=O)NCC45CC6CC(CC(C6)C4)C5)cccc3n2)C1 [Compound 629, N-(adamantan-1-ylmethyl)-2-{[(3S)-3-aminopyrrolidin-1-yl]carbonyl}imidazo[1,2-a]pyridine-5-carboxamide]
NCC1CCN(C(=O)c2cn3c(C(=O)NCC45CC6CC(CC(C6)C4)C5)cccc3n2)CC1 [Compound 630, N-(adamantan-1-ylmethyl)-2-{[4-(aminomethyl)piperidin-1-yl]carbonyl}imidazo[1,2-a]pyridine-5-carboxamide]
NCC1CCCN(C(=O)c2cn3c(C(=O)NCC45CC6CC(CC(C6)C4)C5)cccc3n2)C1 (stereo not drawn) [Compound 631, N-(adamantan-1-ylmethyl)-2-{[3-(aminomethyl)piperidin-1-yl]carbonyl} imidazo[1,2-a]pyridine-5-carboxamide]
NCC1CCCCN1C(=O)c1cn2c(C(=O)NCC34CC5CC(CC(C5)C3)C4)cccc2n1 (stereo not drawn) [Compound 632, N-(adamantan-1-ylmethyl)-2-{[2-(aminomethyl)piperidin-1-yl]carbonyl}imidazo[1,2-a]pyridine-5-carboxamide]
NC[C@H]1CCCN1C(=O)c1cn2c(C(=O)NCC34CC5CC(CC(C5)C3)C4)cccc2n1 [Compound 633, N-(adamantan-1-ylmethyl)-2-{[(2R)-2-(aminomethyl)pyrrolidin-1-yl]carbonyl}imidazo[1,2-a]pyridine-5-carboxamide]
NCC1CN(C(=O)c2cn3c(C(=O)NCC45CC6CC(CC(C6)C4)C5)cccc3n2)C1 [Compound 634, N-(adamantan-1-ylmethyl)-2-{[3-(aminomethyl)azetidin-1-yl]carbonyl}imidazo[1,2-a]pyridine-5-carboxamide]
NC1CN(C(=O)c2cn3c(C(=O)NCC45CC6CC(CC(C6)C4)C5)cccc3n2)C1 [Compound 635, N-(adamantan-1-ylmethyl)-2-[(3-aminoazetidin-1-yl)carbonyl]imidazo[1,2-a]pyridine-5-carboxamide]
O=C(NC1CCNCC1)c1cn2c(C(=O)NCC34CC5CC(CC(C5)C3)C4)cccc2n1 [Compound 637, 5-N-(adamantan-1-ylmethyl)-2-N-piperidin-4-ylimidazo[1,2-a]pyridine-2,5-dicarboxamide]
O=C(NCC1CCCN1)c1cn2c(C(=O)NCC34CC5CC(CC(C5)C3)C4)cccc2n1 (stereo not drawn) [Compound 639, 5-N-(adamantan-1-ylmethyl)-2-N-(pyrrolidin-2-ylmethyl)imidazo[1,2-a]pyridine-2,5-dicarboxamide]
NC1CC2CCC(C1)N2C(=O)c1cn2c(C(=O)NCC34CC5CC(CC(C5)C3)C4)cccc2n1 (stereo not drawn) [Compound 640, N-(adamantan-1-ylmethyl)-2-[(3-amino-8-azabicyclo[3.2.1]oct-8-yl)carbonyl]imidazo[1,2-a]pyridine-5-carboxamide]
CCN1CCCC1CNC(=O)c1cn2c(C(=O)NCC34CC5CC(CC(C5)C3)C4)cccc2n1 (stereo not drawn) [Compound 643, 5-N-(adamantan-1-ylmethyl)-2-N-[(1-ethylpyrrolidin-2-yl)methyl]imidazo[1,2-a]pyridine-2,5-dicarboxamide]
CN(C)CC(C)(C)CNC(=O)c1cn2c(C(=O)NCC34CC5CC(CC(C5)C3)C4)cccc2n1 [Compound 644, 5-N-(adamantan-1-ylmethyl)-2-N-[3-(dimethylamino)-2,2-dimethylpropyl] imidazo[1,2-a] pyridine-2,5-dicarboxamide]
O=C(NCCCN1CCCC1)c1cn2c(C(=O)NCC34CC5CC(CC(C5)C3)C4)cccc2n1 [Compound 645, 5-N-(adamantan-1-ylmethyl)-2-N-(3-pyrrolidin-1-ylpropyl)imidazo[1,2-a]pyridine-2,5-dicarboxamide]
O=C(NCCN1CCCC1)c1cn2c(C(=O)NCC34CC5CC(CC(C5)C3)C4)cccc2n1 [Compound 646, 5-N-(adamantan-1-ylmethyl)-2-N-(2-pyrrolidin-1-ylethyl)imidazo[1,2-a]pyridine-2,5-dicarboxamide]
CN(C)CCCNC(=O)c1cn2c(C(=O)NCC34CC5CC(CC(C5)C3)C4)cccc2n1 [Compound 647, 5-N-(adamantan-1-ylmethyl)-2-N-[3-(dimethylamino)propyl]imidazo [1,2-a]pyridine-2,5-dicarboxamide]
O=C(NCCN1CCOCC1)c1cn2c(C(=O)NCC34CC5CC(CC(C5)C3)C4)cccc2n1 [Compound 648, 5-N-(adamantan-1-ylmethyl)-2-N-(2-morpholin-4-ylethyl)imidazo[1,2-a]pyridine-2,5-dicarboxamide]
CN1CCCC1CCNC(=O)c1cn2c(C(=O)NCC34CC5CC(CC(C5)C3)C4)cccc2n1 (stereo not drawn) [Compound 649, 5-N-(adamantan-1-ylmethyl)-2-N-[2-(1-methylpyrrolidin-2-yl)ethyl]imidazo[1,2-a]pyridine-2,5-dicarboxamide]
O=C(NCCN1CCCCC1)c1cn2c(C(=O)NCC34CC5CC(CC(C5)C3)C4)cccc2n1 [Compound 650, 5-N-(adamantan-1-ylmethyl)-2-N-(2-piperidin-1-ylethyl)imidazo[1,2-a]pyridine-2,5-dicarboxamide]
CCN(CC)CCNC(=O)c1cn2c(C(=O)NCC34CC5CC(CC(C5)C3)C4)cccc2n1 [Compound 651, 5-N-(adamantan-1-ylmethyl)-2-N-[2-(diethylamino)ethyl]imidazo [1,2-a]pyridine-2,5-dicarboxamide]
CC(C)N(CCNC(=O)c1cn2c(C(=O)NCC34CC5CC(CC(C5)C3)C4)cccc2n1)C(C)C [Compound 652, 5-N-(adamantan-1-ylmethyl)-2-N-[2-(diisopropylamino)ethyl]imidazo [1,2-a] pyridine-2,5-dicarboxamide]
CC(CN(C)C)NC(=O)c1cn2c(C(=O)NCC34CC5CC(CC(C5)C3)C4)cccc2n1 (stereo not drawn) [Compound 653, 5-N-(adamantan-1-ylmethyl)-2-N-[2-(dimethylamino)-l-methylethyl] imidazo[1,2-a]pyridine-2,5-dicarboxamide]
O=C(NCCCN1CCOCC1)c1cn2c(C(=O)NCC34CC5CC(CC(C5)C3)C4)cccc2n1 [Compound 654, 5-N-(adamantan-1-ylmethyl)-2-N-(3-morpholin-4-ylpropyl)imidazo [1,2-a]pyridine-2,5-dicarboxamide]
O=C(NCc1cccnc1)c1cn2c(C(=O)NCC34CC5CC(CC(C5)C3)C4)cccc2n1 [Compound 655, 5-N-(adamantan-1-ylmethyl)-2-N-(pyridin-3-ylmethyl) imidazo[1,2-a]pyridine-2,5-dicarboxamide]
Cc1cnc(CNC(=O)c2cn3c(C(=O)NCC45CC6CC(CC(C6)C4)C5)cccc3n2)cn1 [Compound 656, 5-N-(adamantan-1-ylmethyl)-2-N-[(5-methylpyrazin-2-yl)methyl]imidazo[1,2-a]pyridine-2,5-dicarboxamide]
